Reference: patent US6297281A, “Association of no syntase inhibitors with trappers of oxygen reactive forms” (priority 1996, dated 2001)
Like-named read-outs stand apart in the source and are kept apart here.

Legend:
inducible NO synthase [1] = target: T1, inducible NO synthase (Mus musculus, UniProt P29477); assay: In vitro effect on inducible NO synthase of murine macrophages J774A1 (formation of citrulline); type: biochemical; details: NO synthase isolated from LPS/IFN-γ activated J774A1 macrophages, pH 7.4
T1 construct: The NO synthase is isolated with an extraction buffer; endogenous in cells; sonicated, 100,000 g ultracentrifuged extract
Procedure: 2) In vitro effect on inducible NO synthase of murine macrophages J774A1
Murine macrophages J774A1 produce a large quantity of nitrogen monoxide after activation by lipopolysaccharides (LPS) and interferon-γ(IFN-γ). The cells are cultivated in DMEM medium (Dulbecco's Modified Eagle Medium) enriched with 10% foetal calf serum at 37° C. under an atmosphere of 5% CO2 after activation by LPS and IFN-γ. They are seeded in a quantity of 5000 cells/cm^2 in 150 cm^2 bottles. The incubations are carried out in the presence of LPS (1g/ml) and murine IFN-γ (50 U/ml) in DMEM enriched with 10% foetal calf serum. The NO synthase is isolated with an extraction buffer (HEPES 50 mM, pH 7.4, dithiothreitol 0.5 mM, pepstatin A 1 mg/ml, leupeptin 1 mg/ml, soya trypsin inhibitor 1 mg/ml, antipain 1 mg/ml, and PMSF 10 mg/ml). After sonication in the extraction buffer at 4° C., the homogenised products are ultracentrifuged (100,000 g with 3,5-di-tert.butyl-4-hydroxybenzoic acid 4° C. for 1 h). The protocol is then identical to that of cerebellum NO synthase except for the composition of the incubation buffer (100 mM of HEPES, pH 7.4, 1 mM dithiothreitol, 2.5 mM of CaCl2, 10 M of tetrahydrobiopterin, FAD 10 μM, BSA 1 mg/ml, 2 mM of reduced NADPH).

constitutive NO synthase = constitutive NO synthase (Rattus norvegicus, UniProt P29476); assay: biochemical
Procedure: 1) In vitro effect of constitutive NO synthase on the rat cerebellum
The test consists in measuring the conversion, by NO synthase, of L-arginine to L-citrulline. Samples of cerebella of Sprague-Dawley rats (300 g--Charles River) are taken rapidly, dissected at 4° C. and homogenised in a volume of extraction buffer (HEPES 50 mM, EDTA 1 mM, pH 7.4, pepstatin A […], leupeptin […]) centrifuged at 21000 g for 15 min at 4° C. The assay is carried out in glass test tubes in which are distributed […] of incubation buffer containing 100 mM of HEPES, pH 7.4, 2 mM of EDTA, 2.5 mM of CaCl2, 2 mM of dithiothreitol,2 mM of reduced NADPH and 10 µg/ml of calmodulin. […] The reaction is initiated by adding 50 μl of homogenised product, the final volume being 200 μl (the 25 μl shortfall being either water or the product being tested). After 15 min, the reaction is stopped with 2 ml of stop buffer (20 mM of HEPES, pH 5.5, 2 mM of EDTA). After passing samples over a column of 1 ml of DOWEX resin, the radioactivity is quantified by a liquid scintillation spectrometer.
The results are expressed in terms of the IC50 value and are summarised in the table of paragraph 2 (first column of results entitled "constitutive NO synthase, formation of citrulline").

focal cerebral ischaemia = assay: Effect on focal cerebral ischaemia with reperfusion (transient occlusion of the middle cerebral artery); type: in vivo, rat (male Sprague-Dawley)
Procedure: Their activity was evaluated on a model of focal cerebral ischaemia in the rat. […] The effects of the combination were compared with those produced by a treatment with the inhibitor of nitrogen monoxide or the trap of reactive forms of oxygen alone.
5) Effect on focal cerebral ischaemia with reperfusion
The experiments are carried out on male Sprague-Dawley rats (Charles River) weighing between 330 and 360 g. After anaesthesia with isoflurane, the rats undergo transient occlusion of the middle cerebral artery described by Memezawa et al. (Exp. Brain Res. 89, 67-78, 1992). A wire is introduced into the anterior cerebral artery bringing about an occlusion of the middle cerebral artery. Two hours later, the wire is withdrawn so as to permit recirculation of the blood to the Willis polygon. The temperature of the animals is monitored and controlled for 6 hours after occlusion. Forty eight hours after occlusion, the rats are anlesthetised with isoflurane and decapitated. Samples of brain are taken rapidly and immersed for 2 minutes in isopentane at -15° C. Six sections 2 mm thick are obtained and placed in a solution containing 2% 2,3,5-triphenyltetrazolium chloride (TCC) for 20 min and then fixed with formalin. The infarcted zone appears white and the healthy zone red. The infarcted surface area is measured at the site of the (sections by means of an image analyser. The volume of the infarct is calculated by integrating these various surface areas in the knowledge that they are 2 mm apart. The products are administered intraperitoneally. The first treatment is carried out 4 hours after occlusion, that is, 2 hours after the w ire was withdrawn, then 24 hours afterwards.
Compound of example 1: 4 groups of animals are created:
Group 1: treated with physiol ogical serum
Group 2: treated with A (30 mg/kg)
Group 3: treated with B (20 mg/kg)
Group 4: treated with AB (50 mg/kg)
Compound of example 2: 4 groups of animals are created:
Group 1: treated with physiological serum
Group 2: treated with A (10 mg/kg)
Group 4: treated with AB (A: 10 mg/kg and B: 20 mg/kg)
Compound of example 3: 4 groups of animals are created:
Group 2: treated with A (0.03 mg/kg i.v.)
Group 3: treated with B (20 mg/kg i.p.)
Group 4: treated with AB (A: 0.03 mg/kg i.v. and B: 20 mg/kg i.p.)

inducible NO synthase [2] = target: T1, inducible NO synthase; assay: In vitro effect on the production of nitrites by murine macrophages J774A1; type: cell-based; details: J774A1 cells, LPS 1 μg/ml + IFN-γ 50 U/ml, 48 hours; read-out: IC50 Inducible NO synthase (formation of nitrites)
Procedure: 3) In vitro effect on the production of nitrites by murine macrophages J774A1
This test is used to measure the inhibitory activity of the products on inducible NO synthase of culture cells. The cells are cultivated in DMEM medium (Dulbecco's Modified Eagle Medium) enriched with 10% foetal calf serum at 37° C. under an atmosphere of 5% CO2. For the experiments, they are distributed in 96-well plates (50,000 cells per well) and incubated in DMEM without phenol red containing 10% foetal calf serum with LPS (1 μg/ml) and murine IFN-γ(50 U/ml) in the presence or absence of the products to be tested. After 48 hours, the concentration of nitrites in the culture media, degradation products of nitrogen monoxide, is measured by a colorimetric method according to Green et al. (Analytical Biochemistry, 126, 131-138 (1982)). The results are expressed in terms of the IC50 value and are summarised in the table of paragraph 2 (third column of results entitled "inducible NO synthase, formation of nitrites").

[3] = system: production of superoxide anions by J774A1 cells; assay: In vitro effect on the formation of superoxide anions (PMA-activated J774A1 cells, luminol chemiluminescence); type: cell-based, murine
Procedure: 4) In vitro effect on the formation of superoxide anions
The activation of the macrophage cells J774A1 by phorbol myristate acetate (PMA) leads to the production of superoxide anions in a few minutes. These superoxide anions are able to oxidise a luminescent substrate, luminol. This reaction generates photons, the production of which is measured by means of a chemiluminometer. The effects of the products on the production of superoxide anions are tested by incubating the J774A1 cells at 37° C. in the presence of PMA, products to be tested, and luminol. The results are expressed in terms of the IC50 value.

[4] = 3,5-di-tert-butyl-4-hydroxybenzoic acid 20 mg/kg, aminoguanidine, their combination
[5] = Example 1, i.p. 4 h and 24 h after, A 30 mg/kg (NS), B 20 mg/kg (NS), AB 50 mg/kg (** very significant), control 270.4 ± 30.05
[6] = Example 1, i.p., A 30 mg/kg, B 20 mg/kg, AB 50 mg/kg
[7] = Example 2, i.p., A 10 mg/kg (NS), B 20 mg/kg (NS), AB: A 10 mg/kg and B 20 mg/kg (** very significant), control 270.4 ± 30.05
[8] = Example 2, i.p., A 10 mg/kg, B 20 mg/kg, AB: A 10 mg/kg and B 20 mg/kg
[9] = Example 3, A 0.03 mg/kg i.v. (NS), B 20 mg/kg i.p. (NS), AB: A 0.03 mg/kg i.v. and B 20 mg/kg i.p. (** very significant), control 237.68 ± 31.51
[10] = Example 3, A 0.03 mg/kg i.v., B 20 mg/kg i.p., AB: A 0.03 mg/kg i.v. and B 20 mg/kg i.p.

Structure (SMILES)	IC50 (inducible NO synthase [1])	IC50 (constitutive NO synthase)	protection of the animals from ischaemia (in words) (focal cerebral ischaemia; [4])	Volume of infarct (focal cerebral ischaemia; [5])	% Protection (focal cerebral ischaemia; [6])	IC50 (inducible NO synthase [2])	IC50 formation of superoxide anions ([3]; 37° C.)	IC50 (constitutive NO synthase; read-out: IC50 Constitutive NO synthase (formation of citrulline), rat cerebellum homogenate, pH 7.4, 15 min)	IC50 ([3]; 37° C.)	Volume of infarct (focal cerebral ischaemia; [7])	% Protection (focal cerebral ischaemia; [8])	Volume of infarct (focal cerebral ischaemia; [9])	% Protection (focal cerebral ischaemia; [10])	IC50 ([3]; Mus musculus, J774.A1, 37° C.)	protection of the animals from ischaemia (in words) (focal cerebral ischaemia; 7-nitroindazole 10 mg/kg, combined with 3,5-di-tert-butyl-4-hydroxybenzoic acid)	protection of the animals from ischaemia (in words) (focal cerebral ischaemia; nitroarginine 0.03 mg/kg, combined with i.p. 3,5-di-tert-butyl-4-hydroxybenzoic acid)
N=C(N)NN [Example 1 A, aminoguanidine]	29 µM	> 300 µM	low activity	233 ± 30.15	13.8%	22 µM	inactive									
CC(C)(C)c1cc(C(=O)O)cc(C(C)(C)C)c1O.N=C(N)NN [Example 1 AB]	57 µM		protects the animals from ischaemia in a highly significant manner	89.6 ± 22.42	63.2%	26 µM		> 300 µM	30 µM							
CC(C)(C)c1cc(C(=O)O)cc(C(C)(C)C)c1O [Example 1 B, 3,5-di-tert-butyl-4-hydroxybenzoic acid]			inactive	250.9 ± 37.86	7.1%					250.9 ± 37.86	7.1%	222.9 ± 7.34	6.2%	30 µM		
O=[N+]([O-])c1cccc2cn[nH]c12 [Example 2 A, 7-nitroindazole]										238.9 ± 27.08	11.7%				not significantly active	
N=C(NCCC[C@H](N)C(=O)O)N[N+](=O)[O-] [Example 3 A, NGnitroarginine]												238.14 ± 35.94	0%			not significantly active
